Data as given in patent US12384769B2, “Heteroaryl-substituted aminoalkyl azole compounds as pesticides” (Elanco Animal Health GmbH, priority 2019, dated 2025).

Experiments:
Type in all cases: in vivo
[1] = test system: Boophilus microplus; experiment: Boophilus microplus injection test (BOOPMI Injection); settings: Rhipicephalus microplus, 168 h, injection into adult engorged female ticks, egg deposition after 7 days, read-out: activity (efficacy, infertile eggs); for pest or weed control at 0.004 mg: 4 μg/animal; for pest or weed control at 0.02 mg: 20 μg/animal
In short: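 Adult engorged female ticks (5 per group) injected into the abdomen with 1 μL compound in DMSO, then held in a climate chamber. Fertile egg deposition scored after 7 days, with unclear eggs kept until hatching (~42 days). Efficacy 100% = all eggs infertile, 0% = all fertile.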

[2] = test system: Rhipicephalus microplus (strain Parkhurst, resistant against synthetic pyrethroids); experiment: Rhipicephalus microplus in-vitro contact test, larval cattle tick (BOOPMI Contact); settings: 5 μg/cm^2 (=500 g/ha), after 48 hours, read-out: activity (efficacy, larvae dead or moribund)
In short: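 Efficacy, expressed as percentage of larvae dead or moribund, is judged by negative geotactic behaviour 48 h after larvae (20-50 per tube) enter tubes whose inner walls carry a dried acetone film of compound, 5 μg/cm² at 900 ppm. Incubation: horizontal, 27 °C, 85% relative humidity.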

[3] = test system: Ctenocephalides felis; experiment: Ctenocephalides felis in-vitro contact test, adult cat flea; settings: 5 μg/cm^2 (=500 g/ha), after 48 hours, read-out: activity (efficacy, fleas dead or moribund)
Method: Ctenocephalides felis—in-Vitro Contact Tests Adult Cat Flea
(§1) 9 mg compound is solved in 1 ml acetone and diluted with acetone to the desired concentration. 250 of the test solution is filled in 25 ml glass test tubes and homogeneously distributed on the inner walls by rotation and tilting on a shaking device (2 h at 30 rpm). With a compound concentration of 900 ppm, an inner surface of 44.7 cm^2 and a homogeneous distribution, a dose of 5 μg/cm^2 is achieved.
(§2) After the solvent has evaporated, each test tube is filled with 5-10 adult cat fleas (Ctenocephalides felis), closed with a perforated lid and incubated in a lying position at room temperature and relative humidity. After 48 hours efficacy is determined. The fleas are patted on the ground of the tubes and are incubated on a heating plate at 45-50° C. for at most 5 minutes Immotile or uncoordinated moving fleas, which are not able to escape the heat by climbing upwards, are marked as dead or moribund.
An efficacy of 100% means all fleas are dead or moribund; 0% means no fleas are dead or moribund.

[4] = test system: Ctenocephalides felis; experiment: Ctenocephalides felis oral test (CTECFE); settings: 48 h, 100 ppm in cattle blood, after 2 days
In short: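 About 20 adult unfed fleas fed through parafilm on cattle blood held at 37° C and dosed with compound from a DMSO concentrate; flea chamber at room temperature. Percent mortality scored after 2 days.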

[5] = test system: Diabrotica balteata; experiment: Diabrotica balteata spray test; settings: 168 h, wheat seeds, after 7 days, read-out: activity (efficacy, seedlings grown); for pest or weed control at 160 µg/disc, 500 g/ha: 500 g/ha (=160 μg/well)
In short: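 Efficacy was read 7 days after infesting each unit with 10–20 banded cucumber beetle larvae, as % of seedlings growing like untreated, uninfested controls. Before infestation, wheat seeds germinated 1 day on agar (5 per well) were sprayed with the active ingredient. The active was formulated in acetone/DMF and diluted in water containing emulsifier.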

[6] = test system: Myzus persicae; experiment: Myzus persicae oral test; settings: 120 h, after 5 days
Method: Solvent: 100 parts by weight acetone
Afterwards the plates are sealed with parafilm through which a mixed population of the green peach aphid (Myzus persicae) can suck on the compound preparation.
(§3) After 5 days mortality in % is determined. 100% means all aphids have been killed and 0% means none of the aphids have been killed.

[7] = test system: Spodoptera frugiperda; experiment: Spodoptera frugiperda spray test; settings: in Zea mays, 168 h, read-out: activity (mortality)
In short: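 Larvae of fall armyworm placed on dried maize leaf sections previously sprayed with emulsified compound (acetone/DMF solvent, water with 1000 ppm emulsifier). Percent of caterpillars killed recorded on day 7, 0–100% scale.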

[8] = test system: Aedes aegypti strain MONHEIM; experiment: Aedes aegypti test (AEDSAE surface treatment & contact assay); settings: 30 minutes exposure, 24 hours after contact, read-out: efficacy (mortality); for mortality at 4 mg/m2: surface concentration 4 mg/m^2, glazed tile; for mortality at 20 mg/m2: surface concentration 20 mg/m^2, glazed tile
Method: Aedes aegypti Test (AEDSAE Surface Treatment & Contact Assay)
(§4) Solvent: Aceton+2000 ppm rapeseed oil methyl ester (RME)
(§5) In order to produce a sufficient, active ingredient containing solution it is necessary to solve the test compound in the solvent-mix (acetone at 2 mg/mL/RME 2000 ppm). This solution is pipetted onto a glazed tile and after evaporation of the acetone, adult mosquitoes of the species Aedes aegypti strain MONHEIM are placed onto the dried surface. The exposure time is 30 minutes.
(§6) Mortality in percent (%) is determined 24 hours after contact of the insects to the treated surface. 100% mortality means that all tested insects are dead, whereas 0% means that no insect died.

[9] = test system: Rhipicephalus sanguineus; experiment: Rhipicephalus sanguineus in-vitro contact test, adult brown dog ticks (RHIPSA Contact); settings: 5 μg/cm^2 (=500 g/ha), after 48 hours, read-out: activity (efficacy, ticks dead or moribund)
Method: Rhipicephalus sanguineus—in-Vitro Contact Tests with Adult Brown Dog Ticks (RHIPSA Contact)
as §1, with “250 μl_,” for “250”
as §2, with “brown dog ticks (Rhipicephalus sanguineus),” for “cat fleas (Ctenocephalides felis),”, “ticks” for “fleas”, “ticks,” for “fleas,”
An efficacy of 100% means all ticks are dead or moribund; 0% means no ticks are dead or moribund.

[10] = test system: Myzus persicae; experiment: Myzus persicae spray test; settings: foliar, 120 h, 500 g/ha, Chinese cabbage leaf disks, after 5 days
Method: Myzus persicae—Spray Test
Solvent: 78.0 parts by weight acetone • 1.5 parts by weight dimethylformamide
Emulsifier: alkylarylpolyglycol ether
To produce a suitable preparation of active compound, 1 part by weight of active compound is mixed with the stated amount of solvents and is diluted with water, containing an emulsifier concentration of 1000 ppm, to the desired concentration. Further test concentrations are prepared by dilution with emulsifier containing water.
Chinese cabbage (Brassica pekinensis) leaf disks infected with all instars of the green peach aphid (Myzus persicae), are sprayed with a preparation of the active ingredient of the desired concentration.
as §3

[11] = test system: Anopheles funestus strain FUMOZ-R; experiment: Anopheles funestus test (ANPHFU surface treatment & contact assay); settings: 30 minutes exposure, 24 hours after contact, read-out: efficacy (mortality); for mortality at 4 mg/m2: surface concentration 4 mg/m^2, glazed tile
Method: Anopheles funestus Test (ANPHFU Surface Treatment & Contact Assay)
as §4
as §5, with “Anopheles funestus” for “Aedes aegypti”, “FUMOZ-R (Hunt et al., Med. Vet. Entomol. 2005 September; 19(3): 271-275)” for “MONHEIM”
as §6

[12] = test system: Musca domestica strain WHO-N; experiment: Musca domestica test (MUSCDO surface treatment & contact assay); settings: surface concentration 4 mg/m^2, glazed tile, 30 minutes exposure, 24 hours after contact, read-out: efficacy (mortality)
Method: Musca domestica Test (MUSCDO Surface Treatment & Contact Assay)
as §4
as §5, with “flies” for “mosquitoes”, “Musca domestica” for “Aedes aegypti”, “WHO—N” for “MONHEIM”
as §6

SMILES: C[C@H](Nc1nc2cc(C(F)(F)F)cc(Cl)c2o1)c1ncnn1-c1ncccn1 [Example I-006]
- pest or weed control at 0.004 mg [1]: 100%
- pest or weed control at 0.02 mg [1]: 100%
- pest or weed control at 5 µg/cm2 [2]: 100%
- pest or weed control at 5 µg/cm2, 5 µg/cm2 [3]: 100%
- mortality at 100 ppm [4]: 100%
- pest or weed control at 160 µg/disc, 500 g/ha [5]: 100%
- mortality at 4 ppm [6]: 90%
- mortality at 100 g/ha [7]: 100%
- mortality at 500 g/ha [7]: 100%
- mortality at 4 mg/m2 [8]: 85 to 100%

SMILES: Cc1nc([C@H](C)Nc2nc3cc(C(F)(F)F)c(Cl)cc3o2)n(-c2ncccn2)n1 [Example I-011]
- pest or weed control at 0.004 mg [1]: 100%
- pest or weed control at 0.02 mg [1]: 100%
- pest or weed control at 5 µg/cm2 [2]: 80%
- mortality at 100 ppm [4]: 100%
- pest or weed control at 5 µg/cm2, 5 µg/cm2 [9]: 80%
- pest or weed control at 100 g/ha [5]: 100%
- pest or weed control at 160 µg/disc, 500 g/ha [5]: 100%
- mortality at 4 ppm [6]: 90%
- mortality at 500 g/ha [7]: 100%

SMILES: C[C@H](Nc1nc2cc(Cl)cc(Cl)c2o1)c1ncnn1-c1ncccn1 [Example I-013]
- pest or weed control at 5 µg/cm2 [2]: 100%
- mortality at 100 ppm [4]: 90%
- pest or weed control at 160 µg/disc, 500 g/ha [5]: 100%
- mortality at 500 g/ha [10]: 100%

SMILES: C[C@H](Nc1nc2cc(C(F)(F)F)cc(Cl)c2o1)c1ncnn1-c1ncc(F)cn1 [Example I-045, 7-Chlor-N-{(1S)-1-[1-(5-fluorpyrimidin-2-yl)-1H-1,2,4-triazol-5-yl]ethyl}-5-(trifluormethyl)-1,3-benzoxazol-2-amin]
- pest or weed control at 0.004 mg [1]: 100%
- pest or weed control at 0.02 mg [1]: 100%
- pest or weed control at 5 µg/cm2 [2]: 80%
- pest or weed control at 5 µg/cm2, 5 µg/cm2 [3]: 100%
- mortality at 100 ppm [4]: 100%
- pest or weed control at 5 µg/cm2, 5 µg/cm2 [9]: 100%
- pest or weed control at 100 g/ha [5]: 100%
- pest or weed control at 160 µg/disc, 500 g/ha [5]: 100%
- mortality at 100 g/ha [7]: 100%
- mortality at 500 g/ha [7]: 100%

SMILES: C[C@H](Nc1nc2cc(C(F)(F)F)c(Cl)cc2o1)c1ncnn1-c1ncc(Cl)cn1 [Example I-059, 6-Chlor-N-{(1)S-1-[1-(5-chlorpyrimidin-2-yl)-1H-1,2,4-triazol-5-yl]ethyl}-5-(trifluormethyl)-1,3-benzoxazol-2-amin]
- pest or weed control at 5 µg/cm2 [2]: 100%
- pest or weed control at 5 µg/cm2, 5 µg/cm2 [3]: 100%
- pest or weed control at 5 µg/cm2, 5 µg/cm2 [9]: 100%
- pest or weed control at 100 g/ha [5]: 100%
- mortality at 4 ppm [6]: 90%
- mortality at 100 g/ha [7]: 100%
- mortality at 4 mg/m2 [8]: 85 to 100%
- mortality at 20 mg/m2 [8]: 90 to 100%
- mortality at 4 mg/m2 [11]: 85 to 100%
- mortality at 20 mg/m2 ([11]; surface concentration 20 mg/m^2, glazed tile): 90 to 100%
- mortality at 4 mg/m2 [12]: 90 to 100%

SMILES: Cc1cnc(-n2ncnc2[C@H](C)Nc2nc3cc(C(F)(F)F)c(Cl)cc3o2)nc1 [Example I-060, 6-Chlor-N-{(1S)-1-[1-(5-methylpyrimidin-2-yl)-1H-1,2,4-triazol-5-yl]ethyl}-5-(trifluormethyl)-1,3-benzoxazol-2-amin]
- pest or weed control at 5 µg/cm2 [2]: 100%
- pest or weed control at 5 µg/cm2, 5 µg/cm2 [3]: 100%
- pest or weed control at 5 µg/cm2, 5 µg/cm2 [9]: 80%
- pest or weed control at 100 g/ha [5]: 100%
- mortality at 4 ppm [6]: 90%
- mortality at 100 g/ha [7]: 83%

SMILES: C[C@H](Nc1nc2cc(C(F)(F)F)c(Cl)cc2o1)c1ncnn1-c1ncc(F)cn1 [Example I-061, 6-Chlor-N-{(1S)-1-[1-(5-fluorpyrimidin-2-yl)-1H-1,2,4-triazol-5-yl]ethyl}-5-(trifluormethyl)-1,3-benzoxazol-2-amin]
- pest or weed control at 5 µg/cm2 [2]: 100%
- pest or weed control at 5 µg/cm2, 5 µg/cm2 [3]: 100%
- pest or weed control at 5 µg/cm2, 5 µg/cm2 [9]: 80%
- pest or weed control at 100 g/ha [5]: 100%
- mortality at 4 ppm [6]: 100%
- mortality at 100 g/ha [7]: 100%
- mortality at 4 mg/m2 [8]: 85 to 100%
- mortality at 20 mg/m2 [8]: 90 to 100%
- mortality at 4 mg/m2 [11]: 85 to 100%
- mortality at 4 mg/m2 [12]: 90 to 100%

SMILES: C[C@H](Nc1nc2cc(OC(F)(F)F)c(Cl)cc2o1)c1ncnn1-c1ncccn1 [Example I-082, 6-Chlor-N-{(1S)-1-[1-(pyrimidin-2-yl)-1H-1,2,4-triazol-5-yl]ethyl}-5-(trifluormethoxy)-1,3-benzoxazol-2-amin]
- pest or weed control at 5 µg/cm2 [2]: 100%
- pest or weed control at 5 µg/cm2, 5 µg/cm2 [3]: 100%
- pest or weed control at 5 µg/cm2, 5 µg/cm2 [9]: 100%
- pest or weed control at 100 g/ha [5]: 100%
- mortality at 4 ppm [6]: 100%
- mortality at 100 g/ha [7]: 100%

SMILES: Cc1nc([C@H](C)Nc2nc3cc(Cl)cc(C(F)(F)F)c3o2)n(-c2ccc(C(F)(F)F)cn2)n1 [Example I-086, 5-Chlor-N-[(1S)-1-{3-methyl-1-[5-(trifluormethyl)pyridin-2-yl]-1H-1,2,4-triazol-5-yl}ethyl]-7-(trifluormethyl)-1,3-benzoxazol-2-amin]
- pest or weed control at 5 µg/cm2 [2]: 90%
- mortality at 4 ppm [6]: 90%

SMILES: C[C@H](Nc1nc2cc(C(F)(F)F)c(Cl)cc2o1)c1nc(C2CC2)nn1-c1ccc(C#N)cn1 [Example I-100, 6-{5-[(1S)-1-{[6-chloro-5-(trifluoromethyl)-1,3-benzoxazol-2-yl]amino}ethyl]-3-cyclopropyl-1H-1,2,4-triazol-1-yl}pyridine-3-carbonitrile]
- pest or weed control at 100 g/ha [5]: 100%
- mortality at 4 ppm [6]: 90%
- mortality at 100 g/ha [7]: 100%
